Experimental data published in ChEMBL document CHEMBL1201862, “PubChem BioAssay data set” (2004).
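Each compound was tested at five concentrations against cells in 96-well plates for 48 hours. GI50 marks 50% less growth.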 Calls of active or inactive are those of the source. Rule as the data show it: active = GI50 up to about 1.1 µM and inactive = higher.

How the values were obtained:
Experiment in all cases: growth of human tumour cells (NCI), 48 h
[1] = test system: NCI-H522
[2] = test system: SK-MEL-28
[3] = test system: SN12C
[4] = test system: OVCAR-8
[5] = test system: SF-295
[6] = test system: CCRF-CEM
[7] = test system: OVCAR-5
[8] = test system: HCT-116
[9] = test system: K562
[10] = test system: OVCAR-3
[11] = test system: RXF 393
[12] = test system: NCI-H23
[13] = test system: ACHN
[14] = test system: UACC-257
[15] = test system: UO-31
[16] = test system: SNB-75

Measured: GI50

Cn1c(N)c(-c2c3ccccc3nc3ccccc23)c(=O)n(C)c1=O
inactive: [1] > 100 µM | [2] > 100 µM | [3] > 100 µM | [4] > 100 µM | [5] > 100 µM | [6] > 100 µM | [7] > 100 µM | [8] > 100 µM | [9] > 100 µM | [10] > 100 µM | [11] > 100 µM | [12] > 100 µM

CC(C)(C)OC(=O)N1N=NC2C1C1CC(OCc3ccccc3)(OCc3ccccc3)C2O1 (stereo unspecified)
inactive: [2] 29 µM | [3] 49.4 µM | [5] 40 µM | [13] > 100 µM | [14] 23.6 µM | [6] 11.2 µM | [7] > 100 µM | [9] 20.2 µM | [15] 29.9 µM | [10] 30.3 µM | [11] 27.9 µM | [16] 28.1 µM | [12] 21.1 µM

CCOC(=O)C(=O)Nc1nc2c(OCC)cccc2s1
inactive: [1] > 100 µM | [2] > 100 µM | [3] > 100 µM | [4] > 100 µM | [5] > 100 µM | [13] > 100 µM | [14] > 100 µM | [7] > 100 µM | [8] > 100 µM | [9] > 100 µM | [15] > 100 µM | [10] > 100 µM | [11] > 100 µM | [16] > 100 µM | [12] > 100 µM

O=C(Nc1cccc(NC(=O)c2cc(=O)c3ccccc3o2)n1)c1cc(=O)c2ccccc2o1
inactive: [1] 15 µM | [2] 62.4 µM | [4] > 100 µM | [13] 8.32 µM | [14] 56.5 µM | [6] 42.2 µM | [7] > 100 µM | [8] 27.1 µM | [9] 5.46 µM | [15] 10.4 µM | [10] 37.6 µM | [11] 20.8 µM | [16] 38.8 µM | [12] 20.1 µM

CS(=O)(=O)CSCSSCS(C)(=O)=O
inactive: [1] 14.9 µM | [2] 24.6 µM | [3] 29.2 µM | [4] 30.2 µM | [5] 18.2 µM | [13] 40 µM | [14] 28.4 µM | [6] 22.2 µM | [7] 43.2 µM | [8] 34.4 µM | [9] 23.8 µM | [15] 32.1 µM | [10] 47.1 µM | [11] 17.1 µM | [16] > 63.4 µM | [12] 35.5 µM

N#CC(/C(=N/NC(=O)C(=O)NN)C(=O)Nc1nc([N+](=O)[O-])cs1)c1ccc(Cl)cc1 (stereo unspecified)
inactive: [2] > 100 µM | [3] > 100 µM | [4] > 100 µM | [5] > 100 µM | [13] > 100 µM | [14] > 100 µM | [6] 89.5 µM | [7] > 100 µM | [8] > 100 µM | [15] > 100 µM | [10] > 100 µM | [11] > 100 µM | [16] > 100 µM | [12] > 100 µM

Oc1ccc(O)c(-n2cccn2)c1
inactive: [1] 16.6 µM | [2] > 100 µM | [3] 94.4 µM | [4] 40.7 µM | [5] 95.1 µM | [13] > 100 µM | [6] 20.6 µM | [7] 88.9 µM | [9] 24.2 µM | [15] 56.4 µM | [11] 38.1 µM | [16] > 100 µM | [12] > 100 µM

COc1ccc(CNc2nc3ccccc3nc2-c2cccs2)cc1OC
inactive: [2] 84.5 µM | [3] 61.5 µM | [4] 34 µM | [5] 42.4 µM | [13] 23.1 µM | [14] 23.3 µM | [6] 33.3 µM | [7] > 100 µM | [8] 33.5 µM | [9] 59.4 µM | [15] 22.6 µM | [10] 51.3 µM | [11] 41.9 µM | [12] 25.2 µM

Cc1ccccc1NC(=O)C(=O)C(c1cnc2ccc([N+](=O)[O-])cc2n1)[N+](=O)[O-] (stereo unspecified)
inactive: [1] 27.4 µM | [2] > 100 µM | [3] > 100 µM | [4] > 100 µM | [5] > 100 µM | [13] > 100 µM | [14] > 100 µM | [6] 25.5 µM | [7] > 100 µM | [8] > 100 µM | [9] 39.1 µM | [15] 54 µM | [11] > 100 µM | [16] > 100 µM | [12] > 100 µM

O=C(O)c1cc(-c2ccccc2O)nc2ccccc12
inactive: [1] > 100 µM | [2] > 100 µM | [3] > 100 µM | [4] > 100 µM | [5] > 100 µM | [13] > 100 µM | [14] > 100 µM | [6] > 100 µM | [7] > 100 µM | [8] > 100 µM | [9] > 100 µM | [15] > 100 µM | [10] > 100 µM | [16] > 100 µM | [12] > 100 µM

CC1=C2CCCC2=C/C(=N/Nc2ccc([N+](=O)[O-])cc2[N+](=O)[O-])CC1
inactive: [1] > 100 µM | [2] > 100 µM | [3] > 100 µM | [4] > 100 µM | [5] > 100 µM | [13] > 100 µM | [14] > 100 µM | [6] > 100 µM | [7] > 100 µM | [8] > 100 µM | [9] > 100 µM | [15] > 100 µM | [10] > 100 µM | [11] > 100 µM | [16] 45.2 µM | [12] > 100 µM

N#C/C1=C(\N)CCSSSC1
inactive: [1] 20.9 µM | [2] 43.6 µM | [3] 36.3 µM | [4] 21 µM | [5] 19.6 µM | [13] 41.7 µM | [14] 35.8 µM | [6] 48.9 µM | [7] 53.1 µM | [8] 40.2 µM | [9] 55.3 µM | [15] 56.4 µM | [10] 46.3 µM | [11] 58.3 µM | [16] 42.3 µM | [12] 32.1 µM

CCOC(=O)CC1NC(=O)CS1 (stereo unspecified)
inactive: [2] > 100 µM | [3] 36.6 µM | [4] > 100 µM | [5] > 100 µM | [13] > 100 µM | [14] > 100 µM | [6] > 100 µM | [7] > 100 µM | [8] 21.7 µM | [9] 80.4 µM | [15] > 100 µM | [10] > 100 µM | [16] > 100 µM | [12] > 100 µM

C#CCN(C)C(=O)N(CC#C)N=O
inactive: [1] > 100 µM | [2] > 100 µM | [3] > 100 µM | [4] > 100 µM | [5] > 100 µM | [13] > 100 µM | [14] > 100 µM | [6] > 100 µM | [7] 29.5 µM | [8] > 100 µM | [9] > 100 µM | [15] > 100 µM | [10] > 100 µM | [11] > 100 µM | [16] > 100 µM | [12] > 100 µM

CCc1cc(Cc2cc(CC)c(NC(=O)C3=CC(=O)CC(c4ccc(OC)cc4)O3)c(CC)c2Cl)c(Cl)c(CC)c1NC(=O)C1=CC(=O)CC(c2ccc(OC)cc2)O1 (stereo unspecified)
inactive: [2] 23.3 µM | [3] 22 µM | [4] 26.5 µM | [5] 19.8 µM | [13] 17.9 µM | [14] 16 µM | [6] 28.1 µM | [7] 20.7 µM | [8] 16.7 µM | [9] 32.1 µM | [15] 16.5 µM | [10] 19.1 µM | [11] 17.9 µM | [16] 20 µM | [12] 17.1 µM

Cc1ccc(S(=O)(=O)n2cc(/C=C/C#N)c(/C=C/C#N)c2)cc1
inactive: [1] > 10 µM | [2] > 100 µM | [3] > 100 µM | [4] > 100 µM | [5] 55.5 µM | [13] 72.8 µM | [14] 82 µM | [6] 43.8 µM | [7] > 100 µM | [9] 34 µM | [15] 23.4 µM | [10] 37.1 µM | [11] 33.7 µM | [16] 29.8 µM | [12] 96.6 µM

Cc1nnc2n1N=C(c1ccc(-c3ccc([N+](=O)[O-])cc3)o1)CS2
inactive: [1] > 100 µM | [2] > 100 µM | [3] > 100 µM | [4] > 100 µM | [5] > 100 µM | [13] > 100 µM | [14] > 100 µM | [7] > 100 µM | [8] > 100 µM | [9] > 100 µM | [15] > 100 µM | [10] > 100 µM | [16] > 100 µM | [12] 35.1 µM

NC(=O)c1cccc(C2OC(COP(=O)(O)O)C(O)C2O)c1 (stereo unspecified)
inactive: [1] > 50 µM | [2] 45.9 µM | [3] > 50 µM | [4] 16 µM | [5] 39.1 µM | [13] > 50 µM | [14] > 50 µM | [6] 9.93 µM | [7] > 50 µM | [8] > 50 µM | [9] 26.8 µM | [15] 26.1 µM | [10] > 50 µM | [11] 18.6 µM | [16] 14.4 µM | [12] > 50 µM

CC(=O)O[C@H]1CCN2C(=O)C=CC(OCc3ccccc3)C12 (stereo partly specified)
inactive: [2] > 100 µM | [3] > 100 µM | [4] > 100 µM | [5] > 100 µM | [13] > 100 µM | [14] > 100 µM | [6] > 100 µM | [7] > 100 µM | [9] > 100 µM | [15] > 100 µM | [10] > 100 µM | [16] > 100 µM | [12] > 100 µM
